# Measured values: a melting point compilation (Tetko et al.; mined from patent text by program, amines drawn as free bases though some values may be those of a salt)
row,SMILES,melting point [°C]
1,CC(=O)CN1CCc2c(c(=O)oc3cc(C)c([N+](=O)[O-])cc23)C1,166 to 168
2,CCOC(=O)C(Cc1ccc(Cl)c(OC(F)(F)C(F)F)c1)C(=O)c1ccc(F)cc1 (stereo unspecified),73 to 74
3,Cc1ccc(S(=O)(=O)OC2=C(Br)C(=O)c3c(ccc4c3CCC(C)(C)O4)C2=O)cc1,109 to 115
4,Cc1ccc(S(=O)(=O)N(Cc2cc(C(C)(C)C)c(O)c(C(C)(C)C)c2)c2cccnc2)cc1,121 to 123
5,C#CCn1c(=O)n(C2CCN(C(=O)OCC)CC2)c2ccc(Cl)cc21,126
6,Cc1nnc2n1-c1ccc(Cl)cc1C(N1CCOCC1)=NC2,243 to 253
7,O=C(NCCC1CCCCC1)c1cc(-c2ncc(Cl)cc2C(=O)O)ccc1Cl,208 to 211
8,COc1ccc(/C=C/c2nc3c(c(=O)n(C)c(=O)n3C)n2C)c(OC)c1OC,187 to 188
9,Nc1nc(N)c2c(n1)CCC(Cc1cc(Cl)cc(Cl)c1)C2 (stereo unspecified),> 200
10,COc1cc2c(cc1O)CCN(Cc1cccc(OC(C)=O)c1)C2,120 to 122
11,OCc1c(Cl)cc(Cl)cc1Br,111 to 112
12,COC(=O)c1cc(O)c2cc(N3CCOCC3)ccc2c1,231 to 234
13,COc1ccc(OCCCCCBr)c(C2Sc3cc(Cl)ccc3N(C)C2=O)c1 (stereo unspecified),105 to 106
14,O=S(=O)(NC1CCC(O)CC1)c1ccc(Cl)cc1 (stereo unspecified),138 to 142
15,O=[N+]([O-])c1ccc2nc(CCCCCCCCc3nc4ccc([N+](=O)[O-])cc4[nH]3)[nH]c2c1,135 to 137
16,NC(=O)Cc1ccc(OCC(O)CN2CCCC(Cn3c(=O)[nH]c4cc(Cl)c(Cl)cc43)C2)cc1 (stereo unspecified),148
17,CCC(C(=O)C(C)C(O)C(C)CCc1c(Cl)cc(C)c(O)c1C(=O)O)C1OC(CC)(C2CCC(O)(CC)C(C)O2)CC1C (stereo unspecified),183 to 185
18,CCCN(C)c1ccc(-c2c(Cl)c(=O)c2=O)cc1,162
19,CCCC(=Cc1ccsc1)[N+](=O)[O-],52 to 54.5
20,CCOP(=O)(CCNC(=O)c1c(CC)nc2cc(OC)c(OC)cc2c1-c1ccc(OC)c(OC)c1)OCC,157 to 158
21,CCc1ccc(S(=O)(=O)CC#N)cc1,120 to 121

row,SMILES,melting point [°C]
1,CCN(CC)CCNc1ccc(NCCNCCO)c2c1C(=O)c1c(O)ccc(O)c1C2=O,165 to 167
2,COC1CCC(O)C(CNC(C)=O)O1 (stereo unspecified),117 to 118
3,Cc1ccc(Oc2cnc(C#N)c(C#N)n2)cc1,126 to 127
4,O=C(CS(=O)(=O)Cc1cccs1)C12CC3CC(CC(C3)C1)C2,95.5 to 98
5,COc1ccc(Sc2nc(C)c(CC(=O)O)s2)nn1,143 to 144
6,Cc1cc(C)c2cccc(OCc3c(Cl)ccc(S(=O)(=O)N4CCC[C@H]4C(=O)N4CCN(C(=O)c5cccc(C=NN)c5)CC4)c3Cl)c2n1,158
7,Fc1ccc(Nc2ncnc3[nH]ccc23)cc1Cl,274 to 275
8,Fc1ccc(Cn2c(NCCN3CCC(Nc4nc5ccccc5n4Cc4ccc(F)cc4)CC3)nc3ccccc32)cc1,197
9,CCOCc1nc2c(N)nc3cc(OCc4csc(-c5cccs5)n4)ccc3c2n1CC(C)(C)O,192 to 194
10,COC(=O)c1cc(NS(C)(=O)=O)ccc1F,135 to 137
11,COc1cc(C(C)=O)ccc1OCCN1CCC(C(c2ccc(F)cc2)c2ccc(F)cc2)CC1,129 to 131
12,CCc1nc2csc(C(=S)OC)c2[nH]1,140 to 142
13,CCOC(=O)Cc1cnc(N=C2SCC3Cc4ccccc4CN23)s1 (stereo unspecified),132
14,CCOC(=O)C(=Cc1ccccc1[N+](=O)[O-])C(=O)C(OCC)OCC,66 to 67.5
15,COc1ccc(C(C)C)cc1-c1cc(C(=O)NC2CCN(C(=O)OC(C)(C)C)C2)c(OCc2ccccc2)cc1OCc1ccccc1 (stereo unspecified),151 to 154
16,CC#CCOc1ccc(S(=O)(=O)C(C(=O)NO)C2CCN(Cc3ccc(OC)cc3)CC2)cc1 (stereo unspecified),138
17,CC(C)CCCOc1nc(N)c([N+](=O)[O-])cc1Cl,53 to 54
18,COc1ccc2c(c1)C13CCN(C)C(C2)C1CCC(=O)C3 (stereo unspecified),187 to 188
19,COC(=O)[C@H](O)[C@@H](NC(=O)OC(C)(C)C)c1ccc(C#N)cc1,250
20,Nc1cc(C(F)(F)F)nc(C(F)(F)F)c1,147 to 149
21,Cc1ccc2c(c1)CNC(=O)CC2,174 to 175

row,SMILES,melting point [°C]
1,COc1ccc(Cc2cnc(N)nc2N)cc1OCCCSc1ccc(NC(C)=O)cc1,175 to 177
2,CC(C)NC(=O)NCCc1c2c3c(nc(N)c2nn1C)CCCC3,237 to 238
3,CCN1c2ncc([N+](=O)[O-])cc2C(=O)N(C)c2cccnc21,148 to 149
4,CC(=O)c1ccc(NC(=O)Nc2ccc(S(N)(=O)=O)cc2)cc1,258 to 260
5,CON=CC1=CCCN(C(=O)Oc2ccc(C(C)(C)CC(C)(C)C)cc2)C1,91 to 93
6,CNC(=O)N1C(=O)CC(c2ccc(OC)c(OC3CCCC3)c2)N1C (stereo unspecified),65 to 68
7,Cc1cc([N+](=O)[O-])sc1C(=O)c1sc(Nc2ccc(S(N)(=O)=O)cc2)nc1N,268 to 269
8,O=C1CCC(N2Cc3c(CNC(=O)NC4CCCCC4)cccc3C2=O)C(=O)N1 (stereo unspecified),309 to 311
9,Nc1cn(C2CCN(c3c(F)cc4c(=O)c(C(=O)O)cn(C5CC5)c4c3F)C2)nn1 (stereo unspecified),221
10,CON1C(C)(C)CC(OCC2CO2)CC1(C)C (stereo unspecified),47 to 49
11,COc1ccccc1C1(O)C(O)CCC2CNCC21 (stereo unspecified),168
12,Cc1ccc2c(=O)nc(-c3cccc(CCC(=O)OC(C)(C)C)n3)sc2c1,135
13,O=CN(O)C(CCCO)CS(=O)(=O)c1ccc(-c2ccc(F)cc2)cc1 (stereo unspecified),143 to 144
14,CCOC(=O)/C(C#N)=C/c1c(OC)cccc1OC,99 to 101
15,CC1(C)C=C(C(=O)c2ccc3c(c2)CCN(C(N)=O)C3)C(C)(C)CC1,78.6 to 79.7
16,CCOC(=O)C1=C(C)NC(C)=C(C(=O)OCCOC)C1c1cccc(Cl)c1Cl (stereo unspecified),139
17,Cc1c(C(F)(F)C(F)(F)F)ncn(-c2c(Cl)cc(C(F)(F)F)cc2C#N)c1=O,158 to 160
18,CCCCCCCCc1ncc(-c2ccc(OC(=O)[C@H]3CCCO3)cc2)cn1,68
19,COC(=O)c1c(C)[nH]c(C)c1C1=CC(=O)c2ncccc2C1=O,237 to 241

# Now from value to compound:
row,melting point [°C],SMILES
1,233 to 236,O=S1(=O)NC(C2CCCCC2)Nc2ccc(-c3ccccc3Cl)cc21 (stereo unspecified)
2,198 to 201,O=C(O)c1cccc(C=CC(=O)c2ccccc2)c1
3,> 300,CC(C)(C)n1c(=O)c(=O)[nH]c2ccccc21
4,73 to 75,CCOC(=O)c1csc(-c2cccnc2)n1
5,97 to 98,COC(=O)CCC(OC(=O)Oc1ccccc1)C(=O)c1ccc(Cl)cc1 (stereo unspecified)
6,138 to 139,c1ccc(-c2ccc3nncn3n2)cc1
7,132 to 134,CCCOc1cc(CCCOc2nn(Cc3ccccc3)cc2CC(=O)O)n(Cc2ccc(Cl)cc2Cl)n1
8,207 to 208,CC(C)n1nc(-c2cc(NC(=O)c3ccccc3)cnc2-c2ccccc2)ccc1=O
9,218 to 220,Cc1ncc([N+](=O)[O-])n1C(=O)Nc1ccccc1
10,86 to 88,CCCCc1ncc(CO)n1Cc1ccccc1Cl
11,203 to 207,Cn1ncc(C(=O)N2CCOCC2)c1C(=O)Nc1ccn2nc(-c3ccccc3)nc2c1
12,205 to 207,Cc1ccccc1C1CC(=O)c2c(C)n[nH]c2C1 (stereo unspecified)
13,120 to 121,Cc1sc(-c2ccccc2)nc1COc1ccc(COc2ncccc2C#N)cc1
14,79 to 80,CCSc1cc2ccccc2c(=O)n1Cc1ccccc1
15,115 to 116,COC(=O)c1cn(Cc2ccc(OCc3nc(-c4ccccc4)oc3C)cc2)cc1-c1ccccc1
16,155 to 157,COc1cc2c(-c3ccnc(NN)c3)c(CO)c(CO)cc2cc1OCc1ccccc1
17,153 to 154,CCNc1c(-c2ccccc2C)nc2c3cc(OC)ccc3ccn12
18,98 to 99,CCCCNCc1ccc(-c2ccccc2S(=O)(=O)NC(C)(C)C)cc1

row,melting point [°C],SMILES
1,78,CCCCCCCCCc1ccc(-c2ccc(OCC(C)CC)nn2)cc1 (stereo unspecified)
2,215,CCOC(=O)c1nc(-c2ccc(N3CCOCC3)cc2)[nH]c1-c1ccc(Cl)cc1
3,139 to 141,COC(=O)c1cc(-c2ccccc2)c(=O)n2c1-c1cc(Cl)ccc1CC2
4,148,O=C(Nc1ccccc1)O[C@@H]1CN=C(c2ccc([N+](=O)[O-])cc2)O[C@H]1c1ccccc1 (racemic)
5,166 to 168,OC(Cn1c(-c2ccc(Cl)cc2)nc2cccnc21)c1ccccc1 (stereo unspecified)
6,226 to 228,Cc1ccc(N2N=CC(=NNc3cccc(-c4cccc(C(=O)O)c4)c3O)C2=O)cc1C
7,235 to 236,Cn1c(Nc2cccc(C(F)(F)F)c2)nc2c(-c3cccc(C(=O)NCCO)c3)cccc21
8,124 to 126,Cc1ccc(-c2c(NS(=O)(=O)c3ccc(C(C)(C)C)cc3)nc(NCCO)nc2OCCOCc2ccccc2)cc1
9,235 to 236,CCCCc1nc2c(N)nc3ccccc3c2n1CC1(O)CCOCC1
10,104 to 105,COC(=O)C(Cc1ccc([N+](=O)[O-])c(OCc2ccccc2)c1)NC(=O)OC(C)(C)C (stereo unspecified)
11,77,Nc1nc2ccccc2c2c1ncn2CCCCNC(=O)[C@@H]1C[C@H]1c1ccccc1 (relative stereo)
12,59 to 61,COc1ccc(Cc2sc3ccccc3c2-c2ccc(-c3ccc(OC(Cc4ccccc4)C(=O)O)cc3)cc2)cc1OC (stereo unspecified)
13,124 to 126,CC(=O)NCC1CC1c1cccc2nc(C)nn12 (stereo unspecified)
14,185 to 186,O=C(C1CCCC1)N1C=C2c3ccccc3C3CC2(C1)c1ccccc13 (stereo unspecified)
15,175 to 176,O=[N+]([O-])c1ccc(N2CCN(Cc3ccccc3)CC2)nc1CS(=O)(=O)c1ccccc1
16,102 to 106,O=C(c1ccc(F)c(F)c1)N1CCC[C@H](c2nc(-c3ccncc3)no2)C1
17,222 to 224,O=C(c1cccc2cc[nH]c12)N1CCN(c2ccc(F)cc2)CC1
